For the experiment, the target named is T1, PI3Kα H1047R (T47D cells) (Homo sapiens, UniProt P42336, H1047R).
T1 construct: endogenous in cells; host or cells: T47D cells
Briefly: PI3Kα cellular assay: pAKT HTRF in T47D cells after EGF stimulation. The class given is cell-based. Conditions: for IC50: T47D cells (PI3Kα H1047R), pAKT S473 HTRF, 1 hr compound, 20 ng/ml EGF 10 min. In a few lines:
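pAKT read by HTRF in lysates of EGF-stimulated (20 ng/mL, 10 min) T47D H1047R cells. Before stimulation, serum-starved cells (16 h) received compound for 1 h at 37 °C, dosed from 10,000 nM down to 0.5 nM in 3-fold steps.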
(In general: TR-FRET usually uses a lanthanide donor and a delayed reading to cut background.)

These results are taken from patent US20260132129A1 (Genesis Therapeutics, Inc., priority 2022, published 2026).

In general, IC50 refers to the concentration that gives 50% inhibition. Read a low IC50 as higher potency.

T1 sequence (P42336 whole entry H1047R): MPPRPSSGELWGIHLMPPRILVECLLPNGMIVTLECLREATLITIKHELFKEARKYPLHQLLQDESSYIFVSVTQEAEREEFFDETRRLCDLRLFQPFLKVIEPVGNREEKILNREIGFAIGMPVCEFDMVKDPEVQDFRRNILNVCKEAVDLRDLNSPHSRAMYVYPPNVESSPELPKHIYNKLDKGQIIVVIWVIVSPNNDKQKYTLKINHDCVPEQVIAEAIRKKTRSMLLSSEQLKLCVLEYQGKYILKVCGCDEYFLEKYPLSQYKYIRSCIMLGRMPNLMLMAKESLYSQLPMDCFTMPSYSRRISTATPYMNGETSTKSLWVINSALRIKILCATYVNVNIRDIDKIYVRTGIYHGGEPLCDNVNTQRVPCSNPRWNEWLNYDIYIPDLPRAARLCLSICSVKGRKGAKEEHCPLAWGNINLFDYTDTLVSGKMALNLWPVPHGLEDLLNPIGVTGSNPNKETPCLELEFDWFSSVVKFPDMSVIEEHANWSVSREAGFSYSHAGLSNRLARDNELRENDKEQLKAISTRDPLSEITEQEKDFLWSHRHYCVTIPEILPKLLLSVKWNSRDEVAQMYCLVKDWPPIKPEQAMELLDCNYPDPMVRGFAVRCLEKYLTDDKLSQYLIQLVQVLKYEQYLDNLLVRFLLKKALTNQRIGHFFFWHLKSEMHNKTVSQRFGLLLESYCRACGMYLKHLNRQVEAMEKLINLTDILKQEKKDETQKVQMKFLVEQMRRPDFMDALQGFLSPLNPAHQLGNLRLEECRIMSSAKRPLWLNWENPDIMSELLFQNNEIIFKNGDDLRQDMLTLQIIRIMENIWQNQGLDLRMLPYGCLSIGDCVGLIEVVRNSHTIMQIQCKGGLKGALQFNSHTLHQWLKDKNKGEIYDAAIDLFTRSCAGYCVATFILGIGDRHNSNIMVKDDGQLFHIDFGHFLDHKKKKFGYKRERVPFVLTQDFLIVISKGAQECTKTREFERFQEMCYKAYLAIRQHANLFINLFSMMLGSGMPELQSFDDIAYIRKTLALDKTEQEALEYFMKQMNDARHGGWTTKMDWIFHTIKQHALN
T1 sequence (P27986 whole entry partner): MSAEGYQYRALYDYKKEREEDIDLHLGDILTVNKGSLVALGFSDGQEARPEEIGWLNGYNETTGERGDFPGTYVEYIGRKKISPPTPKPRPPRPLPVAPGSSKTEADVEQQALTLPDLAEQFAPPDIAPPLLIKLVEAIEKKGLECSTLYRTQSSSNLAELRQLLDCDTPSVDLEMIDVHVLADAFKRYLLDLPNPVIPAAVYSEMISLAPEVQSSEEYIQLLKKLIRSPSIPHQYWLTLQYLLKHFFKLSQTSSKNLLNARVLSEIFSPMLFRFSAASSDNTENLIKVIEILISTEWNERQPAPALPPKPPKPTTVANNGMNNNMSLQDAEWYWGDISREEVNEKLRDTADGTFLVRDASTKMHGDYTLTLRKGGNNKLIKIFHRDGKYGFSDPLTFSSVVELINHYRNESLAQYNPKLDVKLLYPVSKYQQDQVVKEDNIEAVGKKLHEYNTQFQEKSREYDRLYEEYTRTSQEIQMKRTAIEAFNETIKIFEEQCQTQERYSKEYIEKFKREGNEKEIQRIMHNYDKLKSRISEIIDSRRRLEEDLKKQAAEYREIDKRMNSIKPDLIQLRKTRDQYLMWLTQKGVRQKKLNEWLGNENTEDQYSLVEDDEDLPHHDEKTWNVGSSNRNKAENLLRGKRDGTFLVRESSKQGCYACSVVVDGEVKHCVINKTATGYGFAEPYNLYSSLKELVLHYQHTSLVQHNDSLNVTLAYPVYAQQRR

For the molecule `Cc1cc([C@H](C)Nc2ccccc2C(=O)O)c2cc(-c3ccnnc3)cc(=O)n2c1` [Compound 484], the IC50 is more than 2000 nM and the “T47D pAKT S473 HTRF IC50 (H1047R): T47D (H1047R) selectivity over SKBR3 (WT)” value was “C (C denotes ≤5-fold)”.
In the same order, the values of `CONC(=O)c1ccc(-c2cc(=O)n3cc(C)cc([C@@H](C)Nc4ccccc4C(=O)O)c3n2)cc1` [Compound 485] are more than 2000 nM and “C (C denotes ≤5-fold)”.
In the same order, the values of `CONC(=O)c1ccc(-c2cc(=O)n3cc(C)cc([C@H](C)Nc4ccccc4C(=O)O)c3n2)cc1` [Compound 486] are 100 to 500 nM and “A (A denotes >20-fold)”.
With `Cc1cc(C(C)Nc2ccccc2C(=O)O)c2nc(-c3ccc(C(=O)NO)cc3)cc(=O)n2c1` (stereo not drawn) [Compound 487], the IC50 was more than 2000 nM and the “T47D pAKT S473 HTRF IC50 (H1047R): T47D (H1047R) selectivity over SKBR3 (WT)” value is on record as “C (C denotes ≤5-fold)”.
In the same order, the values of `Cc1cc([C@@H](C)Nc2ccccc2C(=O)O)c2nc(-c3ccc4nc(CO)[nH]c4c3)cc(=O)n2c1` [Compound 488] are more than 2000 nM and “C (C denotes ≤5-fold)”.
In the case of `Cc1cc([C@H](C)Nc2ccccc2C(=O)O)c2nc(-c3ccc4nc(CO)[nH]c4c3)cc(=O)n2c1` [Compound 489], the IC50 is more than 2000 nM and the “T47D pAKT S473 HTRF IC50 (H1047R): T47D (H1047R) selectivity over SKBR3 (WT)” value was “C (C denotes ≤5-fold)”.
In the same order, the values of `Cc1cc(C(C)Nc2ccccc2C(=O)O)c2nc(N3CCC4(CC3)CC(=O)N4)cc(=O)n2c1` (stereo not drawn) [Compound 490] are more than 2000 nM and “C (C denotes ≤5-fold)”.
Consider `Cc1cc(C(C)Nc2ccccc2C(=O)O)c2nc(N3CCC4(CC3)CNC4=O)cc(=O)n2c1` (stereo not drawn) [Compound 491], for which the IC50 is more than 2000 nM and the “T47D pAKT S473 HTRF IC50 (H1047R): T47D (H1047R) selectivity over SKBR3 (WT)” value was “C (C denotes ≤5-fold)”.
Taken in the same sequence, the figures for `Cc1cc(C(C)Nc2ccccc2-c2ccnnc2)c2nc(N3CCOCC3)cc(=O)n2c1` (stereo not drawn) [Compound 494] were more than 2000 nM and “C (C denotes ≤5-fold)”.
As to `Cc1cc([C@@H](C)Nc2ccccc2-c2ccnnc2)c2nc(N3CCOCC3)cc(=O)n2c1` [Compound 495], the IC50 was more than 2000 nM and the “T47D pAKT S473 HTRF IC50 (H1047R): T47D (H1047R) selectivity over SKBR3 (WT)” value is on record as “C (C denotes ≤5-fold)”.
In the same order, the values of `Cc1cc([C@H](C)Nc2ccccc2-c2ccnnc2)c2nc(N3CCOCC3)cc(=O)n2c1` [Compound 496] are 500 to 2000 nM and “C (C denotes ≤5-fold)”.
Taken in the same sequence, the figures for `Cc1cc([C@@H](C)Nc2ccccc2C(=O)O)c2nc(-c3cc(C)c4[nH]c(=O)[nH]c4c3)cc(=O)n2c1` [Compound 497] were 500 to 2000 nM and “B (B denotes 20-fold≥value>5-fold)”.
In the same order, the values of `Cc1cc([C@H](C)Nc2ccccc2C(=O)O)c2nc(-c3cc(C)c4[nH]c(=O)[nH]c4c3)cc(=O)n2c1` [Compound 498] are more than 2000 nM and “C (C denotes ≤5-fold)”.
With `Cc1cc([C@@H](C)Nc2ccccc2C(=O)O)c2nc(-c3ccc4[nH]c(=O)[nH]c4c3)cc(=O)n2c1` [Compound 499], the IC50 was 100 to 500 nM and the “T47D pAKT S473 HTRF IC50 (H1047R): T47D (H1047R) selectivity over SKBR3 (WT)” value was “A (A denotes >20-fold)”.
Taken in the same sequence, the figures for `Cc1cc([C@H](C)Nc2ccccc2C(=O)O)c2nc(-c3ccc4[nH]c(=O)[nH]c4c3)cc(=O)n2c1` [Compound 500] were more than 2000 nM and “C (C denotes ≤5-fold)”.
In the same order, the values of `Cc1cc([C@@H](C)Nc2ccccc2C(=O)O)c2nc(-c3ccc(C(=O)NO)cc3)cc(=O)n2c1` [Compound 501] are more than 2000 nM and “C (C denotes ≤5-fold)”.
Taken in the same sequence, the figures for `Cc1cc([C@H](C)Nc2ccccc2C(=O)O)c2nc(-c3ccc(C(=O)NO)cc3)cc(=O)n2c1` [Compound 502] were more than 2000 nM and “C (C denotes ≤5-fold)”.
For the molecule `CCc1cc(C(=O)NOC)ccc1-c1cc(=O)n2cc(C)cc([C@@H](C)Nc3ccccc3C(=O)O)c2n1` [Compound 503], the IC50 is more than 2000 nM and the “T47D pAKT S473 HTRF IC50 (H1047R): T47D (H1047R) selectivity over SKBR3 (WT)” value is “C (C denotes ≤5-fold)”.
For the molecule `CCc1cc(C(=O)NOC)ccc1-c1cc(=O)n2cc(C)cc([C@H](C)Nc3ccccc3C(=O)O)c2n1` [Compound 504], the IC50 was more than 2000 nM and the “T47D pAKT S473 HTRF IC50 (H1047R): T47D (H1047R) selectivity over SKBR3 (WT)” value is recorded as “C (C denotes ≤5-fold)”.
In the same order, the values of `Cc1cc(C(C)Nc2ccccc2C(=O)O)c2nc(Nc3ccc4[nH]c(=O)[nH]c4c3)cc(=O)n2c1` (stereo not drawn) [Compound 505] are more than 2000 nM and “C (C denotes ≤5-fold)”.
Taken in the same sequence, the figures for `Cc1cc(C(C)Nc2ccccc2C(=O)O)c2nc(-c3ccc4c(c3)NC(=O)C4)cc(=O)n2c1` (stereo not drawn) [Compound 506] were 500 to 2000 nM and “B (B denotes 20-fold≥value>5-fold)”.
In the same order, the values of `CC(=O)Cc1cc2ccc(-c3cc(=O)n4cc(C)cc(C(C)Nc5ccccc5C(=O)O)c4n3)cn2n1` (stereo not drawn) [Compound 507] are more than 2000 nM and “C (C denotes ≤5-fold)”.
For `CC(=O)N1CCC(c2cc(=O)n3cc(C)cc(C(C)Nc4ccccc4C(=O)O)c3n2)CC1` (stereo not drawn) [Compound 508], the IC50 was more than 2000 nM and the “T47D pAKT S473 HTRF IC50 (H1047R): T47D (H1047R) selectivity over SKBR3 (WT)” value is on record as “C (C denotes ≤5-fold)”.
In the case of `Cc1cc(C(C)Nc2ccccc2C(=O)O)c2nc(C3CCN(CC(N)=O)CC3)cc(=O)n2c1` (stereo not drawn) [Compound 509], the IC50 is more than 2000 nM and the “T47D pAKT S473 HTRF IC50 (H1047R): T47D (H1047R) selectivity over SKBR3 (WT)” value is listed as “C (C denotes ≤5-fold)”.
With `Cc1cc([C@H](C)Nc2ccccc2C(=O)O)c2nc(C3CCN(CC(N)=O)CC3)cc(=O)n2c1` [Compound 510], the IC50 is more than 2000 nM and the “T47D pAKT S473 HTRF IC50 (H1047R): T47D (H1047R) selectivity over SKBR3 (WT)” value is on record as “C (C denotes ≤5-fold)”.
Taken in the same sequence, the figures for `CC(=O)N1CCCC(c2cc(=O)n3cc(C)cc(C(C)Nc4ccccc4C(=O)O)c3n2)CC1` (stereo not drawn) [Compound 511] were more than 2000 nM and “C (C denotes ≤5-fold)”.
As to `Cc1cc([C@H](C)Nc2ccccc2C(=O)O)c2nc(N3C[C@H](C)C[C@H](C)C3)cc(=O)n2c1` [Compound 513], the IC50 is more than 2000 nM and the “T47D pAKT S473 HTRF IC50 (H1047R): T47D (H1047R) selectivity over SKBR3 (WT)” value is on record as “C (C denotes ≤5-fold)”.
On to `Cc1cc(C(C)Nc2ccccc2C(=O)O)c2nc(-c3ccc4[nH]c(=O)[nH]c4c3)cc(=O)n2c1` (stereo not drawn) [Compound 514], for which the IC50 fell in the range of 500 to 2000 nM and the “T47D pAKT S473 HTRF IC50 (H1047R): T47D (H1047R) selectivity over SKBR3 (WT)” value was “B (B denotes 20-fold≥value>5-fold)”.
Taken in the same sequence, the figures for `Cc1cc(C(C)Nc2ccccc2C(=O)O)c2nc(-c3ccc4[nH]cnc4c3)cc(=O)n2c1` (stereo not drawn) [Compound 515] were 500 to 2000 nM and “B (B denotes 20-fold≥value>5-fold)”.
Taken in the same sequence, the figures for `Cc1cc([C@@H](C)Nc2ccccc2C(=O)O)c2nc(-c3ccc4[nH]cnc4c3)cc(=O)n2c1` [Compound 516] were 100 to 500 nM and “A (A denotes >20-fold)”.
